Assay results published in the OPERA property sets (Mansouri et al. 2018).
Where a SMILES comes first, the peptide text is derived from it.

In the case of Cn1cc(-c2ccc(Cl)cc2)c(N2CCOCC2)c1, the logP is reported as 4.2. CC(=O)Oc1coc(CBr)cc1=O showed a logP of 0.51. Compound CC(C)CC(NC(=O)C(CC(C)C)NC(=O)C(CC(C)C)NC(=O)C1CCCN1)C(=O)O (stereo not drawn) (H-PLLL-OH; configuration not given here) has a logP of -1.06. In the case of CC(C)(C)c1ccc(C(CCN2CCCC2)c2ccccc2)cc1 (stereo not drawn), the logP is reported as 6.72. With C=CCc1c(OC)cc(Cc2cnc(N)nc2N)cc1OCC the logP was 2.66. Work on Cc1oc2c(C)cc3c(C)cc(=O)[nH]c3c2c1C yielded a logP of 3.5. With COP(=O)(OC)Oc1ccc(C#N)cc1 the logP was 0.84. COC(=O)c1c(Oc2nc(OC)cc(OC)n2)cccc1C(C)=NOCc1ccccc1 showed a logP of 4.01. Cc1nccc2c1[nH]c1cc(O)ccc12 gave a logP of 2.84. COC(=O)CNC(=O)Cn1c(C)nc2ccccc2c1=O showed a logP of 0.4. In the case of Cc1ccccc1N1CCN(CC2CN=C(N)O2)CC1 (stereo not drawn), the logP is reported as 1.78. Work on CC(=NNC(=O)c1ccc(N)cc1)c1cnccn1 yielded a logP of 1.3. CCCCCCCCNC(=O)N1C(=O)N(C)CC1O (stereo not drawn) gave a logP of 3.46. Work on NC(=O)Nc1cccc(O)c1 yielded a logP of 0.36. Work on ClCC1(C(Cl)Cl)C2C(Cl)CC1(C(Cl)Cl)C(Cl)C2Cl (stereo not drawn) yielded a logP of 5.19. Compound CCCCCC(O)C=CC1C(O)CC(O)C1CC=CCCCC(=O)OCc1ccccc1 (stereo not drawn) has a logP of 4.11. Work on CCOC(=O)C1=C(C)NC(C)=C(C(=O)OC)C1c1cc(OC)c(OC)c(OC)c1 (stereo not drawn) yielded a logP of 3.39. CCCOc1ccc(NC(=O)OCCN2CCCCC2)cc1 showed a logP of 4.2. In the case of Nc1cccc(Cn2cnc3ccccc32)c1, the logP is reported as 1.92. CN(c1nc2ccccc2s1)C1CCN(CCCCOc2ccc(F)cc2)CC1 showed a logP of 5.37. Nc1ccc(CNC(=O)C2CCCN2C(=O)C(Cc2ccc(Cl)c(Cl)c2)NS(=O)(=O)Cc2ccccc2)cn1 (stereo not drawn) gave a logP of 3.68. In the case of NC(=O)C(N)Cc1c[nH]c2ccccc12 (stereo not drawn), the logP is reported as 0.3. CC(C)(C)[N+]([O-])=Cc1ccncc1 showed a logP of 0.4. Cc1c2occc2cc2ccc(=O)oc12 showed a logP of 2.48. Compound CC1(C)C2Cc3ssc(=S)c3C1C2 (stereo not drawn) has a logP of 3.7. With COCCNc1ncnc2c1ncn2C1OC(CO)C(O)C1O (stereo not drawn) the logP was -0.49. For C=CC(=O)OCCCOC(=O)C=C, the logP was 0.87. CCOC(=O)C1=C(C)NC(C)=C(C(=O)OC)C1c1cc(OC)c(O)c(OC)c1 (stereo not drawn) showed a logP of 2.83. With CCN(CC)CC(=O)NCC(=O)Nc1c(C)cccc1C the logP was 2.2. In the case of Cc1ccc(Cc2c[nH]cn2)c(C)c1, the logP is reported as 2.7. In the case of CCC(CC)(C(=O)OC)S(=O)(=O)c1ccc([N+](=O)[O-])cc1, the logP is reported as 2.24. Fc1ccccc1CNc1[nH]cnc2ncnc1-2 showed a logP of 2.27. Work on CCC(C)C(NC(=O)C(CCCNC(=N)N)NC(C)=O)C(=O)NC(Cc1ccccc1)C(N)=O (stereo not drawn) (Ac-Arg-Ile-Phe-NH2; configuration not given here) yielded a logP of -0.04. c1ccc(N2CCN(CCCOn3nnc4ccccc43)CC2)cc1 gave a logP of 3.49. With Nc1nnnn1-c1ccc2ccccc2c1 the logP was 2.08. Work on OC(CNCCCc1ccccc1)CON=C(C1CC1)C1CC1 (stereo not drawn) yielded a logP of 2.56. In the case of CCN(CCO)CCCOc1cc2ncnc(Nc3cc(CC(=O)Nc4cccc(F)c4F)[nH]n3)c2cc1OC, the logP is reported as 3.5. For CCN(CC)c1nc(N)nc(Cl)n1, the logP was 2.14. With CC(C)(C)c1ccc(OCC2CN=C(N)O2)cc1 (stereo not drawn) the logP was 2.84. With CC(C)NC(=NC#N)NS(=O)(=O)c1cnccc1Nc1cccc(C(F)(F)F)c1 the logP was 2.54. With Cc1cc(C)cc(OCC2CN=C(N)O2)c1 (stereo not drawn) the logP was 2.25. c1cc2cc3ccc4c(c3nc2c2c1NCOC2)COCN4 showed a logP of 2.17. Compound OCCCCCCCCNc1[nH]cnc2ncnc1-2 has a logP of 2.23. In the case of Cc1cc2c(ccc3c(C)c(C)c(=O)n(C)c32)o1, the logP is reported as 3.54. With CCOc1cc2ncnc(Nc3cccc(Cl)c3)c2cc1OCC the logP was 4.31. In the case of CC(C)CC(N)C(=O)NC(C(=O)O)C(C)C (stereo not drawn) (H-Leu-Val-OH; configuration not given here), the logP is reported as -2.05. With COCCCNc1ncnc2c1ncn2C1OC(CO)C(O)C1O (stereo not drawn) the logP was -0.17. With Cc1cc2c(nc1N)[nH]c1ccccc12 the logP was 2.9. In the case of NC1CCN(c2nc3c(cc2F)c(=O)c(C(=O)O)cn3-c2ccc(F)cc2F)C1 (stereo not drawn), the logP is reported as -0.46. With Cc1nc([N+](=O)[O-])c(Cl)[nH]1 the logP was 1.06. For Cc1nc(C(Cl)(Cl)Cl)nc(C(Cl)(Cl)Cl)n1, the logP was 3.78. In the case of CC(C(=O)OC1CCCCC1)S(=O)(=O)c1ccc([N+](=O)[O-])cc1 (stereo not drawn), the logP is reported as 2.82. In the case of O=C(O)CCCCON=C(c1cccc(C(F)(F)F)c1)c1cccnn1, the logP is reported as 2.8. Compound Cc1cn(C2C=CC(COP3(=O)OCc4cc(Cl)ccc4O3)O2)c(=O)[nH]c1=O (stereo not drawn) has a logP of 0.88. OCCCCNc1ncnc2c1ncn2C1OC(CO)C(O)C1O (stereo not drawn) gave a logP of -0.62. With Cc1nc2c3c(c(C(=O)N(C)C)cn2c1C)CCC(c1ccccc1F)O3 (stereo not drawn) the logP was 3.6. Compound CC(C)(C)[N+]([O-])=Cc1ccc(C(=O)O)cc1 has a logP of 1.1. For COC(=O)C(C)NP(=O)(OCC1C=CC(n2cc(C)c(=O)[nH]c2=O)O1)Oc1ccc(C)cc1 (stereo not drawn), the logP was 1.19. Work on Cc1ccc(C)c(-n2nnnc2N)c1 yielded a logP of 1.45. Compound CC(C)CC(NC(=O)C(N)Cc1c[nH]c2ccccc12)C(=O)NC(CC(C)C)C(=O)NC(C(=O)O)C(C)C (stereo not drawn) (H-WLLV-OH; configuration not given here) has a logP of 0.23. Compound COc1cccc(-n2nnnc2N)c1 has a logP of 0.96. For O=C1N=C(N2CCOCC2)CN1c1ccccc1, the logP was 0.6. With COc1ccc(-c2cn3cc(N)cnc3n2)c(OC)c1 the logP was 1.68. Compound O=C(O)CCCCON=C(c1ccccc1)c1ncccn1 has a logP of 1.94. Work on CC(C)C(NC(=O)C(N)Cc1ccccc1)C(=O)NCC(=O)O (stereo not drawn) (H-Phe-Val-Gly-OH; configuration not given here) yielded a logP of -2.33. Compound c1ccc2c(c1)OCC(Cc1ncc[nH]1)O2 (stereo not drawn) has a logP of 1.92. COC(=O)CCSc1ccc2nc(-c3ccc(N(C)C)cc3)cn2c1 gave a logP of 3.9. Compound NS(=O)(=O)c1ccncn1 has a logP of -0.2. Compound CCCCC(O)C(CCCCOc1ccc(F)cc1)n1cncn1 (stereo not drawn) has a logP of 3.38. For CCc1cccc(CNc2[nH]cnc3ncnc2-3)c1, the logP was 2.98. For Brc1cc(Br)c(-c2ccccc2)c(Br)c1, the logP was 6.03. O=C1c2ccccc2OCN1CCO[N+](=O)[O-] gave a logP of 1.85. CC(C)=CC1C(C(=O)OCc2cccc(S(C)(=O)=O)c2)C1(C)C (stereo not drawn) gave a logP of 3.83. With Clc1cccc(N2CCN(CCCOn3nnc4ccccc43)CC2)c1 the logP was 4.2. In the case of O=c1ccc(/C=C/c2ccc(-n3cnc4c3CCCC4)cc2)n[nH]1, the logP is reported as 2.47. With Cc1coc2c1c(C)cc1oc(=O)cc(C)c12 the logP was 3.28. In the case of CN(C)CCc1ccccc1, the logP is reported as 2.38. CNC(C)Cc1ccc(OC)cc1 (stereo not drawn) gave a logP of 1.91. In the case of C#CCC(O)(c1ccc(C(C)C)cc1)c1cccnc1 (stereo not drawn), the logP is reported as 2.16. In the case of NC(=O)C(CCN1CCCCC1)c1ccccc1Cl (stereo not drawn), the logP is reported as 2.46. N#Cc1cccc(Cn2cnc3ccccc32)c1 gave a logP of 2.47. CC1CCC(NC(=O)N2C(=O)N(C)CC2O)CC1 (stereo not drawn) gave a logP of 2.41. Compound O=C1c2ccccc2-c2nnc(-c3ccccc3[N+](=O)[O-])cc21 has a logP of 2.64. Compound C[N+](C)([O-])CCCC(c1ccccc1)c1ccccc1 has a logP of 1.45. CC(C)C[C@H](NC(=O)[C@@H](NC(=O)[C@@H](N)CC(C)C)C(C)C)C(=O)O (H-Leu-Val-Leu-OH) gave a logP of -1.57. CCCCCCNC1=NS(=O)N=C1NCCSCc1ccc(CN(C)C)o1 (stereo not drawn) gave a logP of 3.46. Compound Nc1nnnn1-c1ccc(Cl)cc1Cl has a logP of 1.62. Work on O=c1cc(CI)occ1O yielded a logP of 0.67. In the case of CCC(C)C(NC(=O)C(C)NC(=O)C(CC(C)C)NC(=O)C(N)CO)C(=O)NC(C(=O)O)C(C)C (stereo not drawn) (H-SLAIV-OH; configuration not given here), the logP is reported as -1.94. COc1ccc(-c2ccsc2)cc1CNC1CCCNC1c1ccccc1 (stereo not drawn) gave a logP of 4.8. For COC(=O)c1c(Oc2nc(OC)cc(OC)n2)cccc1C(C)=NOCC(F)(F)F, the logP was 3.39. CCOP(=O)(OCC)C(Cl)(Cl)P(=O)(OCC)OCC gave a logP of 1.31. CC(=O)Oc1cc(OC(C)CCCc2ccccc2)cc2c1C1CC(O)CCC1C(C)N2 (stereo not drawn) gave a logP of 5.7. With CCOCCOCCOc1ccc(NC(=O)NC23CC4CC(CC(C4)C2)C3)cc1 the logP was 3.9. Compound CCOC(=O)NNc1ccccc1 has a logP of 1.22. CC(C)CC(NC(=O)C(Cc1c[nH]c2ccccc12)NC(=O)C(N)Cc1c[nH]c2ccccc12)C(=O)O (stereo not drawn) (H-Trp-Trp-Leu-OH; configuration not given here) gave a logP of 0.36. O=C1C=C(N2CCCCCC2)CN1c1ccc(Cl)cc1 showed a logP of 3.4. For Cc1ccc(Br)cc1F, the logP was 3.64. In the case of COc1ccc(C2Cc3c(OC)cccc3N(CCN(C)C)C(=O)C2C)cc1 (stereo not drawn), the logP is reported as 4.6. O=C1c2ccc(Cl)cc2OCN1CCO[N+](=O)[O-] gave a logP of 2.74. Work on Nc1nnnn1-c1ccccc1 yielded a logP of 0.69. For NC(=O)c1cc(OCCNCC(O)CON=C(C2CC2)C2CC2)ccc1O (stereo not drawn), the logP was 1.69. In the case of CCN(CC)C(=O)[C@]1(c2ccccc2)C[C@@H]1CN, the logP is reported as 2.03. CCC(C)C(N)C(=O)NC(C)C(=O)NC(C)C(=O)NC(C(=O)O)C(C)CC (stereo not drawn) (H-IAAI-OH; configuration not given here) gave a logP of -2.82. COc1cc2ncnc(Nc3ccccc3F)c2cc1OC showed a logP of 2.2. Cc1cccc(-n2nnnc2N)c1 gave a logP of 1.24. O=C(Cc1ccccc1)OC1Cc2c(O)cc(O)cc2OC1c1ccc(O)c(O)c1 (stereo not drawn) showed a logP of 3.09. For Clc1ccc(-c2c[nH]cc2N2CCOCC2)cc1, the logP was 3.2. With C=C(C)C(=O)OCCCCCCCC(C)C the logP was 5.28. In the case of c1ccc(N2CCN(CCn3nnc4ccccc43)CC2)cc1, the logP is reported as 2.74. With CC(C)=CC1C(C(=O)OCc2cccc(I)c2)C1(C)C (stereo not drawn) the logP was 6.61. Work on O[C@@H](c1cc(C(F)(F)F)nc2c(C(F)(F)F)cccc12)[C@H]1CCCCN1 yielded a logP of 4.49. Cc1nn(-c2cc(CC(Cl)C(=O)O)c(Cl)cc2F)c(=O)n1C(F)F (stereo not drawn) gave a logP of 3.36. In the case of OC(CNCc1ccccc1)CON=C(C1CC1)C1CC1 (stereo not drawn), the logP is reported as 2.08. For CC(C)CC(NC(=O)C(CC(C)C)NC(=O)C(NC(=O)C(C)N)C(C)C)C(=O)O (stereo not drawn) (H-AVLL-OH; configuration not given here), the logP was -1.74. For NC(Cc1c[nH]c2ccccc12)C(=O)N1CCCC1C(=O)O (stereo not drawn), the logP was -0.98. COC(=O)C(C)=CC1C(C(=O)OCc2cccc(COc3ccccc3)c2)C1(C)C (stereo not drawn) gave a logP of 6.06. Compound COCC(O)Cn1c(Br)cnc1[N+](=O)[O-] (stereo not drawn) has a logP of 0.16. Compound COC(=O)Cc1ccc(O)cc1 has a logP of 1.63. In the case of Clc1ccc(-c2noc(N3CCOCC3)n2)cc1, the logP is reported as 3.1. CC1(C)N(O)C(c2ccc([N+](=O)[O-])cc2)=[N+]([O-])C1(C)C gave a logP of 1.68. Work on O=C1CCC(c2ccc(-n3ccnc3)cc2)=NN1 yielded a logP of 0.96. CCN(CC)CCNC(=O)c1c(C)cc(N)cc1C showed a logP of 0.98.
